# Data as given in patent US20210261642A1, “SOLUBILITY OF GLP-1 PEPTIDE” (Novo Nordisk A/S, priority 2017, published 2021).
# Experiment: Assay (I): Determination of Solubility (96-well plate, pH 3.0-11.0, organic solvent 0-70% w/w, UV absorption at 280 nm)
# Type: physicochemical
# Conditions: Method 1
# Description: Assay (I): Determination of Solubility
# 96-Well Plate Preparation
# 96-well plates containing target peptide in a solid form were prepared in one of two ways:
# Method 1 (evaporation): Addition of 100 μl stock solution of said peptide at a concentration of 4-6 mg/ml to each well of a 96-well half area plate (150 μl well size). Subsequently the solvent was evaporated by applying a vacuum until the solvent was completely removed.
# Method 2 (precipitation): Addition of a certain volume of a stock solution of said peptide containing to each well of a 96-well half area plate followed by the addition of a certain volume of concentrated phosphoric acid to obtain a pH of 4.6 followed by addition of a certain volume of ethanol resulting in a final ethanol concentration of 20% v/v. Subsequently the plate was stored at 4° C. for 1 h and then centrifuged at 4,000 rpm for 20 min. Finally the supernatant was removed. The concentration of the stock solution was chosen in a way that the final amount of peptide after supernatant removal was >0.4 mg per well.
# In both cases the stock solution was prepared by adding de-ionized water to a certain amount of powder of said peptide followed by a stepwise addition of small amounts of a concentrated sodium hydroxide solution until said peptide was completely in solution.
# To determine solubility of a target peptide at different pH and organic solvent concentrations, two different buffer systems were used in independent experiments to cover the whole range from pH 3.0 to pH 11.0. Buffer system 1 covers pH 3.0-7.5 and buffer system 2 covers pH 7.5-11.0. For each buffer system 96 different solvent compositions were premixed in the following way: • 1. A low pH buffer (adjusted to either pH 3.0 or pH 7.5) and a high pH buffer (adjusted to either pH 7.5 or pH 11.0) were mixed at 8 different ratios to obtain values between pH 3.0 and pH 7.5 or pH 7.5 and pH 11.0, respectively. The total volume after mixing was 300 μl. • 2. 12 different amounts of organic solvent were then added to these buffers to obtain organic solvent (e.g. ethanol) concentrations between 0 and 70% w/w. • 3. Water was then added to obtain a total weight of 1.0 g of solvent in each well.
# After preparing the 96 different solvent systems, 100 μl of each system was transferred to the 96-well plate containing the solid form of the target peptide (prepared as described in the section “96-well plate preparation”). The plate was then stored at a given temperature (between 5° C. and 70° C.) for a given time on a rotating shaker set to 400 rpm. At regular time intervals the plate was centrifuged (4,000 rpm for 10 min) and a 10 μl sample was taken from each well. The samples were then analysed by UV absorption at 280 nm for peptide quantification. Peptide concentration results are given as UV absorption at 280 nm of the sample subtracted UV absorption at 280 nm of a well comprising 10 μl water.
# The buffers used were as follows: • Buffer system 1 (for the pH range from pH 3.0-7.5)
# • Buffer system 2 (for the pH ranae from pH 7.5-11.0)
# Solubility of liraglutide was determined using Assay (I) described herein. Liraglutide was prepared using Method 1 (evaporation) or Method 2 (precipitation) as described in subsection “96-well plate preparation”.
smiles,measurement,setting,value
"CCCCCCCCCCCCCCCC(=O)N[C@@H](CCC(=O)NCCCC[C@H](NC(=O)[C@H](C)NC(=O)[C@H](C)NC(=O)[C@H](CCC(N)=O)NC(=O)CNC(=O)[C@H](CCC(=O)O)NC(=O)[C@H](CC(C)C)NC(=O)[C@H](Cc1ccc(O)cc1)NC(=O)[C@H](CO)NC(=O)[C@H](CO)NC(=O)[C@@H](NC(=O)[C@H](CC(=O)O)NC(=O)[C@H](CO)NC(=O)[C@@H](NC(=O)[C@H](Cc1ccccc1)NC(=O)[C@@H](NC(=O)CNC(=O)[C@H](CCC(=O)O)NC(=O)[C@H](C)NC(=O)[C@@H](N)Cc1cnc[nH]1)[C@@H](C)O)[C@@H](C)O)C(C)C)C(=O)N[C@@H](CCC(=O)O)C(=O)N[C@@H](Cc1ccccc1)C(=O)N[C@H](C(=O)N[C@@H](C)C(=O)N[C@@H](Cc1c[nH]c2ccccc12)C(=O)N[C@@H](CC(C)C)C(=O)N[C@H](C(=O)N[C@@H](CCCNC(=N)N)C(=O)NCC(=O)N[C@@H](CCCNC(=N)N)C(=O)NCC(=O)O)C(C)C)[C@@H](C)CC)C(=O)O [liraglutide, Arg34,Lys26-(N-epsilon-(gamma-L-glutamyl(N-alfa-hexadecanoyl)))-GLP-1(7-37)]",Peptide concentration after 5 min,"MeCN 31.8% w/w, pH 10.0, 5° C.",1.9 mg/mL
same,Peptide concentration after 180 min,"MeCN 31.8% w/w, pH 10.0, 5° C.",>4.0 mg/mL
same,Peptide concentration after 24 h,"MeCN 31.8% w/w, pH 10.0, 5° C.",2.8 mg/mL
same,Peptide concentration after 5 min,"MeCN 31.8% w/w, pH 10.5, 5° C.",1.3 mg/mL
same,Peptide concentration after 180 min,"MeCN 31.8% w/w, pH 10.5, 5° C.",3.9 mg/mL
same,Peptide concentration after 24 h,"MeCN 31.8% w/w, pH 10.5, 5° C.",3.6 mg/mL
same,Peptide concentration after 5 min,"MeCN 31.8% w/w, pH 11.0, 5° C.",0.8 mg/mL
same,Peptide concentration after 180 min,"MeCN 31.8% w/w, pH 11.0, 5° C.",3.0 mg/mL
same,Peptide concentration after 24 h,"MeCN 31.8% w/w, pH 11.0, 5° C.",>4.0 mg/mL
same,Peptide concentration after 5 min,"MeCN 38.2% w/w, pH 8.0, 5° C.",0.8 mg/mL
same,Peptide concentration after 180 min,"MeCN 38.2% w/w, pH 8.0, 5° C.",3.2 mg/mL
same,Peptide concentration after 24 h,"MeCN 38.2% w/w, pH 8.0, 5° C.",>4.0 mg/mL
same,Peptide concentration after 5 min,"MeCN 38.2% w/w, pH 8.5, 5° C.",0.8 mg/mL
same,Peptide concentration after 180 min,"MeCN 38.2% w/w, pH 8.5, 5° C.",2.9 mg/mL
same,Peptide concentration after 24 h,"MeCN 38.2% w/w, pH 8.5, 5° C.",>4.0 mg/mL
same,Peptide concentration after 5 min,"MeCN 38.2% w/w, pH 9.0, 5° C.",0.4 mg/mL
same,Peptide concentration after 180 min,"MeCN 38.2% w/w, pH 9.0, 5° C.",2.0 mg/mL
same,Peptide concentration after 24 h,"MeCN 38.2% w/w, pH 9.0, 5° C.",>4.0 mg/mL
same,Peptide concentration after 5 min,"MeCN 38.2% w/w, pH 9.5, 5° C.",1.1 mg/mL
same,Peptide concentration after 180 min,"MeCN 38.2% w/w, pH 9.5, 5° C.",3.9 mg/mL
same,Peptide concentration after 24 h,"MeCN 38.2% w/w, pH 9.5, 5° C.",4.0 mg/mL
same,Peptide concentration after 5 min,"MeCN 38.2% w/w, pH 10.0, 5° C.",1.5 mg/mL
same,Peptide concentration after 180 min,"MeCN 38.2% w/w, pH 10.0, 5° C.",>4.0 mg/mL
same,Peptide concentration after 24 h,"MeCN 38.2% w/w, pH 10.0, 5° C.",>4.0 mg/mL
same,Peptide concentration after 5 min,"MeCN 38.2% w/w, pH 10.5, 5° C.",1.2 mg/mL
same,Peptide concentration after 180 min,"MeCN 38.2% w/w, pH 10.5, 5° C.",3.2 mg/mL
same,Peptide concentration after 24 h,"MeCN 38.2% w/w, pH 10.5, 5° C.",2.1 mg/mL
same,Peptide concentration after 5 min,"MeCN 38.2% w/w, pH 11.0, 5° C.",0.6 mg/mL
same,Peptide concentration after 180 min,"MeCN 38.2% w/w, pH 11.0, 5° C.",2.7 mg/mL
same,Peptide concentration after 24 h,"MeCN 38.2% w/w, pH 11.0, 5° C.",>4.0 mg/mL
same,Peptide concentration after 5 min,"MeCN 44.5% w/w, pH 8.0, 5° C.",0.7 mg/mL
same,Peptide concentration after 180 min,"MeCN 44.5% w/w, pH 8.0, 5° C.",2.8 mg/mL
same,Peptide concentration after 24 h,"MeCN 44.5% w/w, pH 8.0, 5° C.",>4.0 mg/mL
same,Peptide concentration after 5 min,"MeCN 44.5% w/w, pH 8.5, 5° C.",1.1 mg/mL
same,Peptide concentration after 180 min,"MeCN 44.5% w/w, pH 8.5, 5° C.",3.3 mg/mL
same,Peptide concentration after 24 h,"MeCN 44.5% w/w, pH 8.5, 5° C.",>4.0 mg/mL
same,Peptide concentration after 5 min,"MeCN 44.5% w/w, pH 9.0, 5° C.",1.7 mg/mL
same,Peptide concentration after 180 min,"MeCN 44.5% w/w, pH 9.0, 5° C.",2.7 mg/mL
same,Peptide concentration after 24 h,"MeCN 44.5% w/w, pH 9.0, 5° C.",>4.0 mg/mL
same,Peptide concentration after 5 min,"MeCN 44.5% w/w, pH 9.5, 5° C.",1.1 mg/mL
same,Peptide concentration after 180 min,"MeCN 44.5% w/w, pH 9.5, 5° C.",3.7 mg/mL
same,Peptide concentration after 24 h,"MeCN 44.5% w/w, pH 9.5, 5° C.",1.3 mg/mL
same,Peptide concentration after 5 min,"MeCN 44.5% w/w, pH 10.0, 5° C.",1.3 mg/mL
same,Peptide concentration after 180 min,"MeCN 44.5% w/w, pH 10.0, 5° C.",3.7 mg/mL
same,Peptide concentration after 24 h,"MeCN 44.5% w/w, pH 10.0, 5° C.",>4.0 mg/mL
same,Peptide concentration after 5 min,"MeCN 44.5% w/w, pH 10.5, 5° C.",0.9 mg/mL
same,Peptide concentration after 180 min,"MeCN 44.5% w/w, pH 10.5, 5° C.",2.9 mg/mL
same,Peptide concentration after 24 h,"MeCN 44.5% w/w, pH 10.5, 5° C.",>4.0 mg/mL
same,Peptide concentration after 5 min,"MeCN 44.5% w/w, pH 11.0, 5° C.",0.8 mg/mL
same,Peptide concentration after 180 min,"MeCN 44.5% w/w, pH 11.0, 5° C.",2.9 mg/mL
same,Peptide concentration after 24 h,"MeCN 44.5% w/w, pH 11.0, 5° C.",>4.0 mg/mL
same,Peptide concentration after 5 min,"MeCN 50.9% w/w, pH 8.0, 5° C.",0.6 mg/mL
